Data taken from US20250108038A1 (priority 2023, published 2025).

Assays:
C57BL/6 mice = experiment: Tail Suspension Test; assay type: in vivo, mouse; conditions: for Dunnett's Multiple Comparison Test Mean Diff., immobility on the TST: percent immobility
From the text: The Tail Suspension Test is a mouse behavioral test useful for screening for potential antidepressant drugs. The tail suspension test is an experimental method used in scientific research to measure a state of being helpless in rodents, especially in mice. It is based on the observation that if a mouse is subjected to short term inescapable stress, then it will stop struggling. Immobility is quantified by measuring the amount of time lacking whole-body activity.
A cohort of 32 adult male mice was used for locomotor activity and a separate cohort of 40 male mice were used for tail suspension (C57BL/6, 7-8 weeks old; body weights 18-25 g, Charles River Laboratories). Upon arrival at the facility, animals were group-housed (5/cage) with access to food and water ad libitum. Animals were maintained on a 12/12-hour light/dark cycle in a temperature—(22±2° C.) and humidity—(approx. 50%) controlled room. Animals were numbered consecutively by tail ID marker in each home cage. Each home cage was identified by a colored ID card indicating the study number, sex, animal numbers and date of birth.
Animals (8/group) were injected (10 mL/kg, ip) 30 min prior to the TST. For locomotor activity monitoring, mice were injected (10 mL/kg, ip; around 12-1 pm) after a full 24 hr period of recordings were collected for baseline activity. For both locomotor activity recordings and TST, PV-03446 doses included 0.3, 1, 3, and 10 mg/kg.
Tail Suspension Test: A piezoelectric sensor operated by the SmartCage system was utilized and video recording was conducted for scoring. Once animals were acclimated to the testing room, the TST was initiated by placing the tail of the test mouse onto the piezoelectric sensor-board and hanging the mouse upside down. The recording period was initiated once the mouse was upside down and lasted for 6 min. At the end of the recording period, the mouse was removed from the recording device and returned to its home cage. The immobilized time, indicating depression-like behavior, was quantified using manual scoring of the video recording from 120 seconds to 360 seconds during the TST. The percent immobility time was calculated as (immobility time (seconds)/240 seconds)*100.
Group differences found to have normal distribution were evaluated using a 1-way ANOVA followed by a Dunnett's Multiple Comparison Test to compare all treatment groups to the vehicle control. Statistical significance was set at p≤0.05.

CYP2C9 = CYP2C9 (Homo sapiens, UniProt P11712); experiment: in vitro; conditions: both, pH 7.4
CYP2C9, sequence (P11712 whole entry): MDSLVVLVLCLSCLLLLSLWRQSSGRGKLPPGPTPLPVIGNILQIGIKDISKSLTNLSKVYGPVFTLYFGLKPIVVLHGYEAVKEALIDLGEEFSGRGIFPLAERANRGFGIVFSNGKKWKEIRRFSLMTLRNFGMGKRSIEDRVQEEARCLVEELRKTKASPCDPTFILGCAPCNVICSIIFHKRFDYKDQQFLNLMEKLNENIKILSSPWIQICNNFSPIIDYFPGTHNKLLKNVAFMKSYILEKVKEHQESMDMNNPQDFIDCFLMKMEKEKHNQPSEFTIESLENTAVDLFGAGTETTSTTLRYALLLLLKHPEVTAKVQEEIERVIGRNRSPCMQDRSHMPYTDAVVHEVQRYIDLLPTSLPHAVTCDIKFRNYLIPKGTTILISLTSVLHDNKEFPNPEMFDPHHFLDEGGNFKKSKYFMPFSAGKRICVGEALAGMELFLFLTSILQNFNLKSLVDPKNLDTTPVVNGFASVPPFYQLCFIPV

Row | SMILES | One-way analysis of variance F, immobility on the TST (C57BL/6 mice; 0.3, 1.0, 3.0, 10.0 mg/kg IP vs control, 5 groups) | immobility (%) (C57BL/6 mice; 0.3, 1.0, 3.0 and 10.0 mg/kg, IP, 30 min prior to TST) | decrease of immobility compared to vehicle (C57BL/6 mice; 0.3-10 mg/kg IP, depending on the dose) | Dunnett's Multiple Comparison Test Significant? P < 0.05?, immobility on the TST (C57BL/6 mice; Control vs 0.3 mg/kg IP) | Dunnett's Multiple Comparison Test q, immobility on the TST (C57BL/6 mice; Control vs 0.3 mg/kg IP) | Dunnett's Multiple Comparison Test Mean Diff., immobility on the TST (C57BL/6 mice; Control vs 0.3 mg/kg IP) | Dunnett's Multiple Comparison Test Significant? P < 0.05?, immobility on the TST (C57BL/6 mice; Control vs 1.0 mg/kg IP) | Dunnett's Multiple Comparison Test q, immobility on the TST (C57BL/6 mice; Control vs 1.0 mg/kg IP) | Dunnett's Multiple Comparison Test Mean Diff., immobility on the TST (C57BL/6 mice; Control vs 1.0 mg/kg IP) | Dunnett's Multiple Comparison Test Significant? P < 0.05?, immobility on the TST (C57BL/6 mice; Control vs 3.0 mg/kg IP) | Dunnett's Multiple Comparison Test q, immobility on the TST (C57BL/6 mice; Control vs 3.0 mg/kg IP) | Dunnett's Multiple Comparison Test Mean Diff., immobility on the TST (C57BL/6 mice; Control vs 3.0 mg/kg IP) | Dunnett's Multiple Comparison Test Significant? P < 0.05?, immobility on the TST (C57BL/6 mice; Control vs 10.0 mg/kg IP) | Dunnett's Multiple Comparison Test q, immobility on the TST (C57BL/6 mice; Control vs 10.0 mg/kg IP) | Dunnett's Multiple Comparison Test Mean Diff., immobility on the TST (C57BL/6 mice; Control vs 10.0 mg/kg IP) | inhibition at 10 µM (CYP2C9) [%]
1 | Clc1ccc(C2(OCC3OCCO3)c3ccccc3C3=NCCN32)cc1 (stereo not shown) [Compound I-19] | 4.71 | significant reduction in immobility (%) at all doses tested | 26-38% | Yes | 2.592 | 19.9 | Yes | 3.739 | 28.7 | Yes | 3.773 | 28.96 | Yes | 2.626 | 20.16 | 
2 | OC1(c2ccc(Cl)cc2)c2ccccc2C2=NCCN21 (stereo not shown) [Compound A, 5-(4-chlorophenyl)-2,3-dihydroimidazo[1,2-b]isoindol-5-ol, reference compound] |  |  |  |  |  |  |  |  |  |  |  |  |  |  |  | 10.2
